Experiments:
[1] = target: T1, MAGL (Homo sapiens, UniProt Q99685); assay: In vitro competitive substrate hydrolysis enzyme activity assay (pNPA), HEK293 cell lysates; format: biochemical; set-up: expressed in transfected cells; host or cells: HEK293; conditions: HEK293 lysate
T1 sequence (Q99685 1-303): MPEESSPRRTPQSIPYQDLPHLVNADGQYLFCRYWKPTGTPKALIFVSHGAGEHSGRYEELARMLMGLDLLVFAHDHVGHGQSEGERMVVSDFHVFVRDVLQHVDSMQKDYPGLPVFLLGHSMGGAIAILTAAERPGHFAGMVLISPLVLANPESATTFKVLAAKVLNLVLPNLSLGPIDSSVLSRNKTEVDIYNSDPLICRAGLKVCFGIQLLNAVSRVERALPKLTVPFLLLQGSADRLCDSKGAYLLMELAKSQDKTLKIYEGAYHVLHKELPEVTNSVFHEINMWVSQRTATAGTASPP
Protocol: HEK293 cell lysates expressing recombinant human MAGL enzyme and 4-nitrophenyl acetate (pNPA) substrate were diluted separately in 50 mM HEPES (pH 7.0) containing 200 mM KCl and 1 mM EDTA. Lysates (50 μL, ˜1.2 μg total protein) were preincubated with varying concentrations of inhibitors at 25° C. After 30 min, 2×pNPA substrate (50 μL, 2.5 mM) was added and the rate of substrate turnover was monitored by measuring the increase in absorbance at wavelength 405 nm for 20 minutes at 25° C. using a Biotek Neo2 plate reader. The mean velocity was converted to percent enzyme activity following background subtraction and normalization to DMSO controls. IC50 values were determined by fitting percent enzyme activities to a non-linear regression, 4-parameter, sigmoidal dose response function in Prism GraphPad.

[2] = target: T1, MAGL; assay: In vitro competitive activity-based protein profiling, PC3 human cell membrane proteomes; format: biochemical; set-up: endogenous in cells; host or cells: PC3 human cells (membrane proteome); conditions: human PC3 membrane proteome
Protocol: PC3 human cell membrane proteomes (50 μL, 2.0 mg/mL total protein concentration) were preincubated with varying concentrations of inhibitors at 37° C. After 30 min, the ABPP probe JW912-Bodipy (1.0 μL, 50 μM in DMSO) was added and the mixture was incubated for 30 min at room temperature. Reactions were quenched with SDS loading buffer (15 μL-4×) and run on SDS-PAGE. Following gel imaging, serine hydrolase activity was determined by measuring fluorescent intensity of gel bands corresponding to MAGL using ImageJ 1.43u software. Intensities were converted to percent enzyme activity by normalizing to DMSO controls. IC50 values were determined by fitting percent enzyme activities to a non-linear regression, 4-parameter, sigmoidal dose response function in Prism GraphPad.

SMILES	IC50 [1]	IC50 [2]
Cc1ncccc1NC(=O)C1CC12CCN(C(=O)OC(C(F)(F)F)C(F)(F)F)CC2 (single isomer, unassigned) [Example 70, 1,1,1,3,3,3-hexafluoropropan-2-yl (R or S)-1-((2-methylpyridin-3-yl)carbamoyl)-6-azaspiro[2.5]octane-6-carboxylate]	0.985 µM	
O=C(Nc1ccccn1)C1CC12CCN(C(=O)OC(C(F)(F)F)C(F)(F)F)CC2 (single isomer, unassigned) [Example 49, 1,1,1,3,3,3-hexafluoropropan-2-yl (R or S)-1-(pyridin-2-ylcarbamoyl)-6-azaspiro[2.5]octane-6-carboxylate]	0.003 µM	
O=C(NC1CC2(COC2)C1)C1CC12CCN(C(=O)OC(C(F)(F)F)C(F)(F)F)CC2 (single isomer, unassigned) [Example 159, 1,1,1,3,3,3-hexafluoropropan-2-yl (R or S)-1-((2-oxaspiro[3.3]heptan-6-yl)carbamoyl)-6-azaspiro[2.5]octane-6-carboxylate]		0.043 µM
Cn1ccc(NC(=O)C2CC23CCN(C(=O)OC(C(F)(F)F)C(F)(F)F)CC3)n1 (single isomer, unassigned) [Example 126, 1,1,1,3,3,3-hexafluoropropan-2-yl (R or S)-1-((1-methyl-1H-pyrazol-3-yl)carbamoyl)-6-azaspiro[2.5]octane-6-carboxylate]		0.23 µM
O=C(Nc1ccncc1)C1CC12CCN(C(=O)OC(C(F)(F)F)C(F)(F)F)CC2 (single isomer, unassigned) [Example 23, 1,1,1,3,3,3-Hexafluoropropan-2-yl (R or S)-1-(pyridin-4-ylcarbamoyl)-6-azaspiro[2.5]octane-6-carboxylate]		0.2 µM
CC(C)Oc1ccc(NC(=O)C2CC23CCN(C(=O)OC(C(F)(F)F)C(F)(F)F)CC3)cn1 (single isomer, unassigned) [Example 166, 1,1,1,3,3,3-hexafluoropropan-2-yl (R or S)-1-((6-isopropoxypyridin-3-yl)carbamoyl)-6-azaspiro[2.5]octane-6-carboxylate]		0.13 µM
O=C(Nc1ccccc1)[C@H]1CC12CCN(C(=O)OC(C(F)(F)F)C(F)(F)F)CC2 (single isomer, unassigned) [Example 141]		0.00091 µM
N#CC1CCN(C(=O)C2CC23CCN(C(=O)OC(C(F)(F)F)C(F)(F)F)CC3)CC1 (single isomer, unassigned) [Example 124, 1,1,1,3,3,3-hexafluoropropan-2-yl (R or S)-1-(4-cyanopiperidine-1-carbonyl)-6-azaspiro[2.5]octane-6-carboxylate]		0.67 µM
CC(C)Oc1ccc(NC(=O)C2CC23CCN(C(=O)OC(C(F)(F)F)C(F)(F)F)CC3)cn1 (single isomer, unassigned) [Example 165, 1,1,1,3,3,3-hexafluoropropan-2-yl (R or S)-1-((6-isopropoxypyridin-3-yl)carbamoyl)-6-azaspiro[2.5]octane-6-carboxylate]		0.0014 µM
O=C(NC1CCOCC1)[C@@H]1CC12CCN(C(=O)OC(C(F)(F)F)C(F)(F)F)CC2 [Example 9, 1,1,1,3,3,3-Hexafluoropropan-2-yl (R)-1-((tetrahydro-2H-pyran-4-yl)carbamoyl)-6-azaspiro[2.5]octane-6-carboxylate]		0.727 µM
O=C(NC(=O)C1CC12CCN(C(=O)OC(C(F)(F)F)C(F)(F)F)CC2)C1CCOCC1 (single isomer, unassigned) [Example 26, 1,1,1,3,3,3-Hexafluoropropan-2-yl (R or S)-1-((tetrahydro-2H-pyran-4-carbonyl)carbamoyl)-6-azaspiro[2.5]octane-6-carboxylate]		0.016 µM
Cc1ncc(NC(=O)C2CC23CCN(C(=O)OC(C(F)(F)F)C(F)(F)F)CC3)cn1 (single isomer, unassigned) [Example 103, 1,1,1,3,3,3-hexafluoropropan-2-yl (R or S)-1-((2-methylpyrimidin-5-yl)carbamoyl)-6-azaspiro[2.5]octane-6-carboxylate]		0.0033 µM
O=C(NCc1ccccc1)[C@@H]1CC12CCN(C(=O)OC(C(F)(F)F)C(F)(F)F)CC2 (single isomer, unassigned) [Example 151]		0.031 µM
Cn1nccc1NC(=O)C1CC12CCN(C(=O)OC(C(F)(F)F)C(F)(F)F)CC2 (single isomer, unassigned) [Example 136, 1,1,1,3,3,3-hexafluoropropan-2-yl (R or S)-1-((1-methyl-1H-pyrazol-5-yl)carbamoyl)-6-azaspiro[2.5]octane-6-carboxylate]		0.34 µM
O=C(NCc1cncnc1)C1CC12CCN(C(=O)OC(C(F)(F)F)C(F)(F)F)CC2 (single isomer, unassigned) [Example 153, 1,1,1,3,3,3-hexafluoropropan-2-yl (R or S)-1-((pyrimidin-5-ylmethyl)carbamoyl)-6-azaspiro[2.5]octane-6-carboxylate]		0.077 µM
O=C(Nc1nccs1)C1CC12CCN(C(=O)OC(C(F)(F)F)C(F)(F)F)CC2 (single isomer, unassigned) [Example 139, 1,1,1,3,3,3-hexafluoropropan-2-yl (R or S)-1-(thiazol-2-ylcarbamoyl)-6-azaspiro[2.5]octane-6-carboxylate]		0.11 µM
N#CC1CCN(C(=O)C2CC23CCN(C(=O)OC(C(F)(F)F)C(F)(F)F)CC3)CC1 (single isomer, unassigned) [Example 123, 1,1,1,3,3,3-hexafluoropropan-2-yl (R or S)-1-(4-cyanopiperidine-1-carbonyl)-6-azaspiro[2.5]octane-6-carboxylate]		0.16 µM
O=C(Nc1ccnnc1)C1CC12CCN(C(=O)OC(C(F)(F)F)C(F)(F)F)CC2 (single isomer, unassigned) [Example 108, 1,1,1,3,3,3-hexafluoropropan-2-yl (R or S)-1-(pyridazin-4-ylcarbamoyl)-6-azaspiro[2.5]octane-6-carboxylate]		0.013 µM
O=C(NCc1cccnn1)C1CC12CCN(C(=O)OC(C(F)(F)F)C(F)(F)F)CC2 (single isomer, unassigned) [Example 157]		0.23 µM
CN1CCC(NC(=O)C2CC23CCN(C(=O)OC(C(F)(F)F)C(F)(F)F)CC3)CC1 (single isomer, unassigned) [Example 114, 1,1,1,3,3,3-hexafluoropropan-2-yl (R or S)-1-((1-methylpiperidin-4-yl)carbamoyl)-6-azaspiro[2.5]octane-6-carboxylate]		2.6 µM
O=C(O)COc1ccc(NC(=O)C2CC23CCN(C(=O)OC(C(F)(F)F)C(F)(F)F)CC3)cn1 (single isomer, unassigned) [Example 184, (R or S)-2-((5-(6-(((1,1,1,3,3,3-hexafluoropropan-2-yl)oxy)carbonyl)-6-azaspiro[2.5]octane-1-carboxamido)pyridin-2-yl)oxy)acetic acid]		1.4 µM
O=C(Nc1ccc(-n2cccn2)nc1)C1CC12CCN(C(=O)OC(C(F)(F)F)C(F)(F)F)CC2 (single isomer, unassigned) [Example 30, 1,1,1,3,3,3-Hexafluoropropan-2-yl (R or S)-1-((6-(1H-pyrazol-1-yl)pyridin-3-yl)carbamoyl)-6-azaspiro[2.5]octane-6-carboxylate]		0.39 µM
O=C(Nc1ccc(C2CC2)nc1)[C@H]1CC12CCN(C(=O)OC(C(F)(F)F)C(F)(F)F)CC2 (single isomer, unassigned) [Example 163]		0.001 µM
O=C(Nc1ccon1)C1CC12CCN(C(=O)OC(C(F)(F)F)C(F)(F)F)CC2 (single isomer, unassigned) [Example 177, 1,1,1,3,3,3-hexafluoropropan-2-yl (R or S)-1-(isoxazol-3-ylcarbamoyl)-6-azaspiro[2.5]octane-6-carboxylate]		0.29 µM
NC(=O)c1ccc(NC(=O)[C@@H]2CC23CCN(C(=O)OC(C(F)(F)F)C(F)(F)F)CC3)cn1 (single isomer, unassigned) [Example 174]		0.22 µM
O=C(Nc1ccon1)C1CC12CCN(C(=O)OC(C(F)(F)F)C(F)(F)F)CC2 (single isomer, unassigned) [Example 178, 1,1,1,3,3,3-hexafluoropropan-2-yl (R or S)-1-(isoxazol-3-ylcarbamoyl)-6-azaspiro[2.5]octane-6-carboxylate]		0.0027 µM
CN1CCC(NC(=O)C2CC23CCN(C(=O)OC(C(F)(F)F)C(F)(F)F)CC3)CC1 (single isomer, unassigned) [Example 115, 1,1,1,3,3,3-hexafluoropropan-2-yl (R or S)-1-((1-methylpiperidin-4-yl)carbamoyl)-6-azaspiro[2.5]octane-6-carboxylate]		0.56 µM

— patent US20240018120A1, “MAGL INHIBITORS” (H. LUNDBECK A/S, priority 2020, published 2024)
